Laboratory results as given in US6521609B1, “Use of CGRP antagonists and CGRP release inhibitors for combating menopausal hot flushes” (Boehringer Ingelheim Pharma KG, priority 1999, dated 2003).

System: increased blood flow through the facial skin caused by endogenous CGRP
Assay: Trigeminal ganglion stimulation in marmosets: facial skin blood flow (laser Doppler)
Format: in vivo, marmoset
Details: anaesthetized marmosets, i.v. 5 minutes before trigeminal ganglion stimulation (10 Hz, 2 mA, 2 msec, 30 seconds)
Experimental: The efficacy of the following test substances was characterised by determining the dose administered i.v. which reduces by 50% the increased blood flow through the skin of the face which has been brought about by endogenous CGRP:
Marmosets of both sexes (300-400 g) are anaesthetized with pentobarbital (initially with 30 mg/kg, i.p., followed by infusion of 6 mg/kg/h, […].). The body temperature is maintained at 37° C. using a heating plate. Pancuronium is administered as a muscle relaxant (initially 1 mg/kg, 0.5 mg after each hour thereafter). The animal's head is secured in a stereotactical apparatus. After the skin on the head has been opened using a lengthwise incision, a small hole is drilled in the skull and a bipolar electrode (Rhodes SNES 100) is lowered into the trigeminal ganglion. […] The petrous bone serves as a guide for placing the electrode (CCX-Digital X-ray apparatus). The position of the electrode in the ganglion is monitored at the end of each experiment. The stimulation parameters are: 10 Hz, 2 mA, 2 msec, for 30 seconds. The blood flow in the micro-vessels of the facial skin is determined by laser Doppler flow measurement using a PeriFlux Laser Doppler System. The animals are exposed to 2 to 3 stimulation periods at intervals of 30 minutes in each case. The first stimulation serves as a reference value for the other stimulations. The test substances are administered i.v. 5 minutes before the 2nd and 3rd stimulation periods.

SMILES | 50% dose (i.v. dose which reduces by 50% the increased blood flow through the facial skin caused by endogenous CGRP)
Nc1c(Br)cc(C[C@@H](NC(=O)N2CCC(N3Cc4ccccc4NC3=O)CC2)C(=O)N2CCC(N3CCCCC3)CC2)cc1Br [AM] | 0.046 mg/kg
CNS(=O)(=O)Cc1ccc2[nH]cc(CCN(C)C)c2c1 [DA] | 0.280 mg/kg
CN(C)CCc1c[nH]c2ccc(C[C@H]3COC(=O)N3)cc12 [DB] | 0.035 mg/kg
